Measurements taken from the supplement of paper PMC10627819.

What was measured:
S. aureus Newman = assay: Bliss interaction score (quartile over a dose matrix) (fitness difference); higher = more antagonism (negative = synergy)
Summary of the method: (§1)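 Fitness was defined as normalised growth: OD595 at the start of stationary phase divided by the plate's robust no-drug mean and capped at 1. Single-drug fitness was inferred from combination measurements. The Bliss score is observed fitness minus the product of the single-drug values, summarised by quartiles across technical, biological and donor/recipient replicates.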

S. pneumoniae D39V [1] = assay: as above
Summary of the method: as §1

S. aureus DSM 20231 = assay: as above
Summary of the method: as §1

B. subtilis 168 = assay: as above
Summary of the method: as §1

S. pneumoniae D39V [2] = assay: fitness (endpoint OD595 vs no drug) (fraction); higher = more growth
Summary of the method: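 In 384-well plates at 37 °C, cultures began at OD595 0.01 in 30 µl, with 55 µl used for S. pneumoniae. OD595 readings every 30 min for 14 h were corrected by the first reading. Fitness divides the stationary-phase transition optical density by the robust mean of no-drug control wells. The result is capped at 1.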
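Throughout, for Bliss interaction score (quartile over a dose matrix): first quartile when negative (synergy) and third quartile when positive (antagonism).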
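Throughout, for fitness (endpoint OD595 vs no drug): OD595 on entry to stationary phase over no-drug wells; at most 1.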

SMILES: CC1(C)S[C@@H]2[C@H](NC(=O)[C@H](N)c3ccc(O)cc3)C(=O)N2[C@H]1C(=O)O [Amoxicillin] + CC[C@H]1OC(=O)[C@H](C)[C@@H](O[C@H]2C[C@@](C)(OC)[C@@H](O)[C@H](C)O2)[C@H](C)[C@@H](O[C@@H]2O[C@H](C)C[C@H](N(C)C)[C@H]2O)[C@](C)(OC)C[C@@H](C)C(=O)[C@H](C)[C@@H](O)[C@]1(C)O [Clarithromycin]
- Bliss interaction score (S. aureus Newman): -0.0752
- Bliss interaction score (S. pneumoniae D39V [1]): 0.177
- Bliss interaction score (S. aureus DSM 20231): -0.0818
- Bliss interaction score (B. subtilis 168): 0.0461
- fitness (S. pneumoniae D39V [2]; first compound 0.0008 µg/mL, partner 0.007812 µg/mL, one replicate): 0.921
- fitness (S. pneumoniae D39V [2]; first compound 0.0008 µg/mL, partner 0.01562 µg/mL, one replicate): 0.834
- fitness (S. pneumoniae D39V [2]; first compound 0.0008 µg/mL, partner 0.03125 µg/mL, one replicate): 0.67
- fitness (S. pneumoniae D39V [2]; first compound 0.0008 µg/mL, partner 0.0625 µg/mL, one replicate): 0.748
- fitness (S. pneumoniae D39V [2]; first compound 0.0008 µg/mL, partner 0.07 µg/mL): 0.212
- fitness (S. pneumoniae D39V [2]; first compound 0.0008 µg/mL, partner 0.125 µg/mL, one replicate): 0.666
- fitness (S. pneumoniae D39V [2]; first compound 0.0008 µg/mL, partner 0.14 µg/mL): 0.157
- fitness (S. pneumoniae D39V [2]; first compound 0.0008 µg/mL, partner 0.25 µg/mL, one replicate): 0.364
- fitness (S. pneumoniae D39V [2]; first compound 0.0008 µg/mL, partner 0.28 µg/mL): 0.0725
- fitness (S. pneumoniae D39V [2]; first compound 0.0015 µg/mL, partner 0.007812 µg/mL, one replicate): 0.844
- fitness (S. pneumoniae D39V [2]; first compound 0.0015 µg/mL, partner 0.01562 µg/mL, one replicate): 0.836
- fitness (S. pneumoniae D39V [2]; first compound 0.0015 µg/mL, partner 0.03125 µg/mL, one replicate): 0.633
- fitness (S. pneumoniae D39V [2]; first compound 0.0015 µg/mL, partner 0.0625 µg/mL): 0.681
- fitness (S. pneumoniae D39V [2]; first compound 0.0015 µg/mL, partner 0.07 µg/mL): 0.24
- fitness (S. pneumoniae D39V [2]; first compound 0.0015 µg/mL, partner 0.125 µg/mL): 0.567
- fitness (S. pneumoniae D39V [2]; first compound 0.0015 µg/mL, partner 0.14 µg/mL): 0.133
- fitness (S. pneumoniae D39V [2]; first compound 0.0015 µg/mL, partner 0.25 µg/mL): 0.366
- fitness (S. pneumoniae D39V [2]; first compound 0.0015 µg/mL, partner 0.28 µg/mL): 0.0875
- fitness (S. pneumoniae D39V [2]; first compound 0.003 µg/mL, partner 0.007812 µg/mL, one replicate): 0.789
- fitness (S. pneumoniae D39V [2]; first compound 0.003 µg/mL, partner 0.01562 µg/mL, one replicate): 0.772
- fitness (S. pneumoniae D39V [2]; first compound 0.003 µg/mL, partner 0.03125 µg/mL, one replicate): 0.546
- fitness (S. pneumoniae D39V [2]; first compound 0.003 µg/mL, partner 0.0625 µg/mL): 0.684
- fitness (S. pneumoniae D39V [2]; first compound 0.003 µg/mL, partner 0.07 µg/mL): 0.126
- fitness (S. pneumoniae D39V [2]; first compound 0.003 µg/mL, partner 0.125 µg/mL): 0.551
- fitness (S. pneumoniae D39V [2]; first compound 0.003 µg/mL, partner 0.14 µg/mL): 0.104
- fitness (S. pneumoniae D39V [2]; first compound 0.003 µg/mL, partner 0.25 µg/mL): 0.357
- fitness (S. pneumoniae D39V [2]; first compound 0.003 µg/mL, partner 0.28 µg/mL): 0.0502
- fitness (S. pneumoniae D39V [2]; first compound 0.006 µg/mL, partner 0.0625 µg/mL, one replicate): 0.436
- fitness (S. pneumoniae D39V [2]; first compound 0.006 µg/mL, partner 0.125 µg/mL, one replicate): 0.303
- fitness (S. pneumoniae D39V [2]; first compound 0.006 µg/mL, partner 0.25 µg/mL, one replicate): 0.149

SMILES: C[C@H]1COc2c(N3CCN(C)CC3)c(F)cc3c(=O)c(C(=O)O)cn1c23 [Levofloxacin] + CO[C@H]1/C=C/O[C@@]2(C)Oc3c(C)c(O)c4c(O)c(c(/C=N/N5CCN(C)CC5)c(O)c4c3C2=O)NC(=O)/C(C)=C\C=C\[C@H](C)[C@H](O)[C@@H](C)[C@@H](O)[C@@H](C)[C@H](OC(C)=O)[C@@H]1C [Rifampicin]
- Bliss interaction score (S. aureus Newman): 0.0412
- Bliss interaction score (S. pneumoniae D39V [1]): 0.11
- Bliss interaction score (S. aureus DSM 20231): 0.0251
- Bliss interaction score (B. subtilis 168): 0.0398
- fitness (S. pneumoniae D39V [2]; first compound 0.1725 µg/mL, partner 0.05 µg/mL): 0.902
- fitness (S. pneumoniae D39V [2]; first compound 0.1725 µg/mL, partner 0.2 µg/mL): 0.356
- fitness (S. pneumoniae D39V [2]; first compound 0.2 µg/mL, partner 0.025 µg/mL, one replicate): 0.843
- fitness (S. pneumoniae D39V [2]; first compound 0.2 µg/mL, partner 0.2 µg/mL, one replicate): 0
- fitness (S. pneumoniae D39V [2]; first compound 0.345 µg/mL, partner 0.05 µg/mL): 0.848
- fitness (S. pneumoniae D39V [2]; first compound 0.4 µg/mL, partner 0.025 µg/mL, one replicate): 0.805
- fitness (S. pneumoniae D39V [2]; first compound 0.4 µg/mL, partner 0.05 µg/mL): 0.724
- fitness (S. pneumoniae D39V [2]; first compound 0.4 µg/mL, partner 0.2 µg/mL, one replicate): 0
- fitness (S. pneumoniae D39V [2]; first compound 0.69 µg/mL, partner 0.05 µg/mL): 0.611
- fitness (S. pneumoniae D39V [2]; first compound 0.69 µg/mL, partner 0.2 µg/mL): 0.288
- fitness (S. pneumoniae D39V [2]; first compound 0.8 µg/mL, partner 0.025 µg/mL, one replicate): 0.725
- fitness (S. pneumoniae D39V [2]; first compound 0.8 µg/mL, partner 0.05 µg/mL): 0.665
- fitness (S. pneumoniae D39V [2]; first compound 0.8 µg/mL, partner 0.2 µg/mL, one replicate): 0
